Results: patent US9145376B2, “Quinazolinone inhibitors of dynein” (The Rockefeller University, priority 2011, dated 2015)

What was measured:
Type in all cases: cell-based
[1] = test system: primary cilia of Shh-EGFP cells; experiment: Quantitative assessment of ciliogenesis (Arl13b staining, cilia size); settings: 24 hours
[2] = test system: mitotic spindle of Shh-EGFP (NIH-3T3) cells (cytoplasmic dynein 1); experiment: Imaging of mitotic spindle assembly; settings: 50 μM, 60 minutes, MG132-arrested cells
From the text: In addition to trafficking macromolecules out of the primary cilium, cytoplasmic dynein complexes have other cellular functions. For example, cytoplasmic dynein 1 acts in concert with dynactin and the nuclear protein NuMA to crosslink and focus the minus ends of microtubules within the mitotic spindle. These actions create the canonical fusiform shape and localize γ-tubulin-containing, microtubule-nucleating complexes to the spindle poles. Cytoplasmic dynein 1 inhibition by blocking antibodies or dominant negative constructs disrupts mitotic spindle assembly, resulting in splayed microtubule ends and reduced γ-tubulin recruitment. To determine whether ciliobrevins can recapitulate these phenotypes, we treated a metaphase-enriched population of NIH-3T3 cells with 50 μM of either example 31 or […] for one hour and examined their mitotic structures by confocal immunofluorescence microscopy.
Shh-EGFP cells were cultured until they achieved approximately 70% confluency and then split 1:5 into 24-well plates containing, poly-D-lysine-coated 12-mm glass coverslips in DMEM containing 10% calf serum, 100 U/mL penicillin, and 0.1 mg/mL streptomycin. […]

[3] = test system: Xenopus melanophores; experiment: Melanosome aggregation assay; settings: for melanosome aggregation: melatonin-induced aggregation
From the text: Another cytoplasmic dynein 1-dependent process is the aggregation of melanin-containing vesicles in pigment cells, the mechanism by which certain organisms adapt their coloration in response to environmental cues. For example, cytoplasmic dynein 1 transports melanosomes toward the center of Xenopus melanophores stimulated with the small-molecule melatonin, counterbalancing the kinesin-2- and myosin-V-driven dispersal of these pigment granules toward the cell periphery in response to melanocyte-stimulating hormone (MSH). To determine if melanosome trafficking is sensitive to the ciliobrevins, we cultured Xenopus melanophores with MSH to uniformly disperse their melanosomes and then treated them with melatonin and various concentrations of test compounds.
Immortalized Xenopus melanophores were cultured in 0.7×L15 medium supplemented with 10% fetal bovine serum, 30 mg/L L-glutamine, and 5 mg/L insulin. The cell were cultured on poly-D-lysine-coated coverslips in 12-well plates for 12 to 24 hours prior to the melanosome aggregation assay. On the day of the experiment, the melanophores were cultured in serum-free medium for 30 minutes, stimulated with 100 nM melanocyte-stimulating hormone (MSH) to uniformly disperse the melanosomes, and then incubated with medium containing individual compounds or DMSO for 10 minutes. Melanosome aggregation was then induced by treating the cells with 10 nM melatonin in the presence of the test compound. The melanophores were either imaged immediately by time-lapse microscopy or fixed after 30 minutes with 0.7×PBS containing 4% paraformaldehyde.
The cells were then washed several times with medium containing melatonin alone and imaged.

SMILES	cilia size in response to increasing concentration (FIG. 1) [1]	mitotic spindle morphology (γ-tubulin-positive pole focusing) [2]	melanosome aggregation ([3]; concentrations up to 40 μM)	melanosome aggregation ([3]; 10 μM dose)	reversibility of effect on melanosome aggregation (washout) ([3]; washout into medium containing melatonin alone)
N#C/C(C(=O)c1ccc(Cl)cc1Cl)=C1\NC(=O)c2ccccc2N1 [Example 1, 3-(2,4-dichlorophenyl)-3-oxo-2-(4-oxo-3,4-dihydroquinazolin-2(1H)-ylidene)propanenitrile]	dose-dependent decrease in cilia size				
N#C/C(C(=O)c1ccccc1)=C1\NC(=O)c2ccccc2N1 [Example 16, 3-oxo-2-(4-oxo-3,4-dihydroquinazolin-2(1H)-ylidene)-3-phenylpropanenitrile]	no decrease in cilia size	normal spindle morphologies	no discernible effect		
N#C/C(C(=O)c1ccc(Cl)cc1Cl)=C1\NC(=O)c2ccc(Cl)cc2N1 [Example 31, 2-(7-chloro-4-oxo-3,4-dihydroquinazolin-2(1H)-ylidene)-3-(2,4-dichlorophenyl)-3-oxo-propanenitrile]		failed to achieve mitotic spindles with focused γ-tubulin-positive poles		significantly inhibited melanosome aggregation	completely reversible
